Data published in paper PMC6647725 (Analytical and Bioanalytical Chemistry, 2019).

Legend:
[1] = tested on: CDK4; settings: cited from earlier work
[2] = tested on: CDK6; settings: cited from earlier work
[3] = Stability in mouse spleen homogenate and its final extract; type: in vitro ADME
Method: (§1) After weighing the complete organ, a volume of 3 mL of this solution was added to the liver and small intestine, 2 mL to the kidneys, and 1 mL to the brain and spleen. The tissue/BSA ratio (w/v) of the homogenates were approximately 0.4:1 for the brain and liver, 0.1:1 for the spleen, 0.2:1 for the kidneys, and 0.25:1 for the small intestine. All samples were shaken in the Fast Prep at 6.0 m/s during 60 s. The stability of each analyte was investigated in all the previously mentioned matrices. For plasma (both human and mouse), the stability was determined in triplicate at two concentration levels, QC L and QC H, whereas for mouse tissue homogenates only at QC M (except the brain in one stability condition). For all matrices, the following stability conditions were assessed: short term at room temperature (RT), long term at − 20 °C, and after 3 freeze-thaw (F/T) cycles at − 20 °C/RT. Furthermore, for tissue homogenates, the short-term stability in ice-water, long-term stability at − 70 °C, and F/T stability at − 70 °C/ice-water were also evaluated. Additionally, the stability in the final extract was tested. For this, the QC L and QC H final extracts from the plasma, brain, and spleen and the QC M final extract from the liver, kidney and small intestine were stored at 4–8 °C up to 3 days. Lastly, the stability of the stock solutions at − 20 °C was investigated.

[4] = Stability in human plasma and its final extract (LC-MS/MS); type: in vitro ADME
Method: 50 μL of the sample (either from a preclinical study, calibration standard, or QC) was mixed with 25 μL of IS-working solution, followed by 150 μL of ACN for protein precipitation. Samples were vortex mixed and centrifuged at 23,100g for 10 min at 20 °C. An aliquot of 80 μL of supernatant was diluted with 120 μL of 10 mM ammonium bicarbonate in water:MeOH (1:1 v/v). The final extract was transferred to a glass vial with insert, and 10 μL was injected to the LC-MS/MS system for analysis.
The stability of each analyte was investigated in all the previously mentioned matrices. For plasma (both human and mouse), the stability was determined in triplicate at two concentration levels, QC L and QC H, whereas for mouse tissue homogenates only at QC M (except the brain in one stability condition). For all matrices, the following stability conditions were assessed: short term at room temperature (RT), long term at − 20 °C, and after 3 freeze-thaw (F/T) cycles at − 20 °C/RT. Furthermore, for tissue homogenates, the short-term stability in ice-water, long-term stability at − 70 °C, and F/T stability at − 70 °C/ice-water were also evaluated. Additionally, the stability in the final extract was tested. […] Lastly, the stability of the stock solutions at − 20 °C was investigated.

[5] = Stability in mouse brain homogenate and its final extract; type: in vitro ADME
Method: as §1

[6] = Tissue distribution in mice after oral administration; type: in vivo, mouse (FVB); settings: female FVB mice, 20 mg/kg oral, 24 h
Method: After weighing the complete organ, a volume of 3 mL of this solution was added to the liver and small intestine, 2 mL to the kidneys, and 1 mL to the brain and spleen. The tissue/BSA ratio (w/v) of the homogenates were approximately 0.4:1 for the brain and liver, 0.1:1 for the spleen, 0.2:1 for the kidneys, and 0.25:1 for the small intestine. All samples were shaken in the Fast Prep at 6.0 m/s during 60 s. This method was developed to support pharmacokinetic and tissue distribution studies of the CDK4/6 inhibitors in mice (FVB background). These studies were done separately for each drug. Animal housing and studies were conducted according to institutional guidelines complying with Dutch and European Union legislation (approval number from The Dutch Central Animal Testing Committee: AVD301002016595). […] Approximately 50 μL of blood was collected from the tip of the tail at several time points, except at the last one, when 500–1000 μL of blood was collected by cardiac puncture under isoflurane anesthesia. […] Mice were sacrificed by cervical dislocation and the organs were collected and weighed. Plasma was obtained using sodium heparin as anticoagulant after centrifugation at 9000g, 4 °C, for 6 min. When necessary, 10 μL of mouse plasma was diluted with 40 μL of human plasma. […]

[7] = final extract (listed under spleen homogenate), 4–8 °C, 3 d, nominal 5 ng/mL
[8] = final extract (listed under spleen homogenate), 4–8 °C, 3 d, nominal 150 ng/mL
[9] = spleen homogenate, 3 F/T (RT, − 20 °C), nominal 50 ng/mL
[10] = spleen homogenate, 3 F/T (− 70 °C, ice/water bath), nominal 50 ng/mL
[11] = spleen homogenate, LT − 20 °C, 1 m, nominal 50 ng/mL
[12] = spleen homogenate, LT − 70 °C, 1 m, nominal 50 ng/mL
[13] = spleen homogenate, RT, 3 h, nominal 50 ng/mL
[14] = spleen homogenate, RT, 1 d, nominal 50 ng/mL
[15] = spleen homogenate, ice/water bath, 3 h, nominal 50 ng/mL
[16] = final extract (listed under human plasma), 4–8 °C, 4 d, nominal 5 ng/mL
[17] = final extract (listed under human plasma), 4–8 °C, 4 d, nominal 150 ng/mL
[18] = human plasma, 3 F/T (− 20 °C/RT), nominal 5 ng/mL
[19] = human plasma, RT, 3 d, nominal 5 ng/mL
[20] = human plasma, RT, 3 d, nominal 150 ng/mL
[21] = human plasma, − 20 °C, 12 m, nominal 5 ng/mL
[22] = brain homogenate, 3 F/T (RT, − 20 °C), nominal 50 ng/mL
[23] = brain homogenate, 3 F/T (− 70 °C, ice/water bath), nominal 50 ng/mL
[24] = brain homogenate, LT − 20 °C, 1 m, nominal 50 ng/mL
[25] = brain homogenate, LT − 70 °C, 1 m, nominal 50 ng/mL
[26] = brain homogenate, RT, 1 d, nominal 5 ng/mL
[27] = brain homogenate, RT, 1 d, nominal 150 ng/mL
[28] = brain homogenate, ice/water bath, 3 h, nominal 50 ng/mL
[29] = final extract (listed under brain homogenate), 4–8 °C, 3 d, nominal 5 ng/mL
[30] = final extract (listed under brain homogenate), 4–8 °C, 3 d, nominal 150 ng/mL

Question: Which results are given for `CCN1CCN(Cc2ccc(Nc3ncc(F)c(-c4cc(F)c5nc(C)n(C(C)C)c5c4)n3)nc2)CC1` [Abemaciclib]?
Answer: IC50 [1]: […]; IC50 [2]: […]; Accuracy (% Bias) [3, 7]: 10.7%; Mean concentration [3, 7]: […]; Accuracy (% Bias) [3, 8]: 4.2%; Mean concentration [3, 8]: […]; Mean concentration [3, 9]: 48.7 ng/mL; Accuracy (% Bias) [3, 10]: 12.1%; Mean concentration [3, 10]: 56.1 ng/mL; Mean concentration [3, 11]: 48.6 ng/mL; Accuracy (% Bias) [3, 12]: 3.5%; Mean concentration [3, 12]: 51.8 ng/mL; Accuracy (% Bias) [3, 13]: 3.4%; Mean concentration [3, 13]: 51.7 ng/mL; Mean concentration [3, 14]: 46.5 ng/mL; Accuracy (% Bias) [3, 15]: 4.9%; Mean concentration [3, 15]: 52.4 ng/mL; Accuracy (% Bias) [4, 16]: 4.5%; Mean concentration [4, 16]: […]; Accuracy (% Bias) [4, 17]: 7.1%; Mean concentration [4, 17]: […]; Mean concentration [4, 18]: […]; Mean concentration ([4]; human plasma, 3 F/T (− 20 °C/RT), nominal 150 ng/mL): […]; Mean concentration [4, 19]: […]; Accuracy (% Bias) [4, 20]: 6.2%; Mean concentration [4, 20]: […]; Mean concentration [4, 21]: […]; Mean concentration ([4]; human plasma, − 20 °C, 12 m, nominal 150 ng/mL): […]; Accuracy (% Bias) [5, 22]: 6.9%; Mean concentration [5, 22]: 53.4 ng/mL; Accuracy (% Bias) [5, 23]: 2.2%; Mean concentration [5, 23]: 51.1 ng/mL; Accuracy (% Bias) [5, 24]: 3.9%; Mean concentration [5, 24]: 52.0 ng/mL; Accuracy (% Bias) [5, 25]: 4.3%; Mean concentration [5, 25]: 52.1 ng/mL; Accuracy (% Bias) [5, 26]: 6.2%; Mean concentration [5, 26]: 5.3 ng/mL; Accuracy (% Bias) [5, 27]: 11.3%; Mean concentration [5, 27]: 167 ng/mL; Accuracy (% Bias) [5, 28]: 10.4%; Mean concentration [5, 28]: 55.2 ng/mL; Mean concentration [5, 29]: […]; Accuracy (% Bias) [5, 30]: 8.7%; Mean concentration [5, 30]: […]

Question: For `CN(C)C(=O)c1cc2cnc(Nc3ccc(N4CCNCC4)cn3)nc2n1C1CCCC1` [Ribociclib], which IC50 [1] is on record?
Answer: […]

Question: What about the IC50 [2] of the same compound?
Answer: 39 nM

Question: What about the “Accuracy (% Bias)” value [3, 7] of the same compound?
Answer: 3.2%

Question: What about the Mean concentration [3, 9] of the same compound?
Answer: 42.9 ng/mL

Question: What about the Mean concentration [3, 10] of the same compound?
Answer: 49.9 ng/mL

Question: And the Mean concentration [3, 11]?
Answer: 40.5 ng/mL

Question: And the Mean concentration [3, 12]?
Answer: 45.0 ng/mL

Question: What about the Mean concentration [3, 13] of the same compound?
Answer: 44.3 ng/mL

Question: And the Mean concentration [3, 14]?
Answer: 21.8 ng/mL

Question: And the Mean concentration [3, 15]?
Answer: 46.2 ng/mL

Question: What about the Mean concentration ([4]; human plasma, 2 F/T (− 20 °C/RT), nominal 5 ng/mL) of the same compound?
Answer: 4.7 ng/mL

Question: What about the Mean concentration [4, 19] of the same compound?
Answer: […]

Question: And the Mean concentration [5, 22]?
Answer: 48.8 ng/mL

Question: And the “Accuracy (% Bias)” value [5, 23]?
Answer: 0.1%

Question: What about the Mean concentration [5, 23] of the same compound?
Answer: 50.0 ng/mL

Question: And the Mean concentration [5, 24]?
Answer: 49.1 ng/mL

Question: What about the “Accuracy (% Bias)” value [5, 25] of the same compound?
Answer: 4.6%

Question: And the Mean concentration [5, 25]?
Answer: 52.3 ng/mL

Question: And the Mean concentration [5, 26]?
Answer: 4.6 ng/mL

Question: What about the Mean concentration [5, 27] of the same compound?
Answer: 129.7 ng/mL

Question: What about the Mean concentration [5, 28] of the same compound?
Answer: 49.4 ng/mL

Question: What about the “Accuracy (% Bias)” value [5, 29] of the same compound?
Answer: 2.7%

Question: And the “Accuracy (% Bias)” value [5, 30]?
Answer: 3.1%

Question: And the tissue distribution ([6]; spleen, kidney, liver, small intestine)?
Answer: highly distributed in the spleen and kidney, followed by the liver and small intestine
